Experimental data reported in patent US20220315534A1, “BETA ADRENERGIC AGONIST AND METHODS OF USING THE SAME” (Curasen Therapeutics, Inc., priority 2019, published 2022).
Read-outs that look alike come from different tables or passages of the source.

Legend:
[1] = biological target: T1, β2-adrenergic receptor (B2-AR) (Homo sapiens, UniProt P07550); assay: cAMP Gs dynamic HTRF assay, cells expressing β2-adrenergic receptor; type: cell-based
T1 construct: expressed in transfected cells
Description: (§1) cAMP homogeneous time-resolved fluorescence (HTRF): experimental methods. Compound efficacy is determined using the cAMP Gs dynamic HTRF assay (Cisbio, catalog #62AM4PEC) largely following the manufacturer's instructions, also detailed below.
(§2) Standard serial dilution curves are 10-point, 5-fold dilutions starting from a highest concentration of 10 μM. […] Assay plates are centrifuged at 500×g for 10 seconds. Compounds and IBMX are prepared at 2× final dose to compensate for addition of cells.
(§3) Cell preparation: 1× stimulation buffer, washing PBS (Dulbecco's phosphate-buffered saline, —Mg —Ca; Caisson Labs, catalog #PBL01), assay PBS (Dulbecco's phosphate-buffered saline, +Mg, +Ca; Caisson Labs, catalog #PBL02) and Versene (0.02% EDTA disodium salt solution in PBS without calcium or magnesium; Caisson Labs, catalog #EDL01) are pre-warmed to 37° C. Cells expressing beta-adrenergic receptor were washed in washing PBS to remove growth medium and then released from the surface by incubating with Versene for 5-10 minutes at 37° C. Cells are harvested using assay PBS, counted manually by hemocytometer or by an automated cell counter, pelleted by centrifugation (200×g, 5 minutes) and resuspended in 37° C. 1× stimulation buffer to a final density of […]. 5 μL of the suspended cell solution (7500 cell total) are added to all wells of the 384 well assay plate, the assay plate was covered with an Axygen® plate seal (Corning PCR-SP) and incubated in a humidified 37° C. environment supplemented with 5% CO2 for 30 minutes.
(§4) HTRF reagent addition, reading and data analysis: After 30 minutes of cell stimulation with test compound, the assay plates are centrifuged at 500×g for 10 seconds, and incubation was stopped with the addition of 5 μL cAMP-D2 acceptor, diluted 1:21 in detection and lysis buffer 2 (Cisbio 62CL2FDF) was added to all cells. Subsequently, 5 μL Anti-cAMP-Eu Donor, diluted 1:21 in detection and lysis buffer 2, was added to cells. Plates were sealed and reactions gently ‘vortexed’ at 900 rpm on a Heidolph Titramax 1000 for at least 30 minutes at room temperature. Plates are centrifuged again at 500×g for 10 seconds, and HTRF was measured using a Tecan Spark plate reader at 50 flashes per well. […] Potency estimates (EC50 and pEC50) are derived from the four-parameter nonlinear regression of the concentration-effect curve and an estimate of relative efficacy is determined by comparing the magnitude of the test compound HTRF signal window (min-max dose) with the signal window of the full agonist control, isoproterenol.

[2] = biological target: T2, β1-adrenergic receptor (B1-AR) (Homo sapiens, UniProt P08588); assay: cAMP Gs dynamic HTRF assay, cells expressing β1-adrenergic receptor; type: cell-based
T2 construct: expressed in transfected cells
T2 sequence (P08588 whole entry): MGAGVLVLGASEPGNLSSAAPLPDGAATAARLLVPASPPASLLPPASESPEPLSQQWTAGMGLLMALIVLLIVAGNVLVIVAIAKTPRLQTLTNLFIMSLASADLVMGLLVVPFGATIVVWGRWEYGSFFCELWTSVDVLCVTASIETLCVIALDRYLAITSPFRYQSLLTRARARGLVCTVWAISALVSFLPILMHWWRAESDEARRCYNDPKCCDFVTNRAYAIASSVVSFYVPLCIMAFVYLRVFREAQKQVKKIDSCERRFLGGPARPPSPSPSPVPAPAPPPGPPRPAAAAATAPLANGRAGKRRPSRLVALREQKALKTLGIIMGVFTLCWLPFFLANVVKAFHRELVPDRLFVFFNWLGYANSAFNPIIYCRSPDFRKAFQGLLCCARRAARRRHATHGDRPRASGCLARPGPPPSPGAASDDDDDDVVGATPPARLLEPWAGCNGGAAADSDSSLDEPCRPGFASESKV
Description: as §1, §2, §3, §4

[3] = CHO-K1 (HitHunter) cells, read-out: Average pEC50 [Receptor subtype: B2-AR, Cell type: CHO-K1 (HitHunter)] (converted)
[4] = CHO-K1 (HitHunter) cells, read-out: Average pEC50 [Receptor subtype: B1-AR, Cell type: CHO-K1 (HitHunter)] (converted)

T1 sequence (P07550 whole entry): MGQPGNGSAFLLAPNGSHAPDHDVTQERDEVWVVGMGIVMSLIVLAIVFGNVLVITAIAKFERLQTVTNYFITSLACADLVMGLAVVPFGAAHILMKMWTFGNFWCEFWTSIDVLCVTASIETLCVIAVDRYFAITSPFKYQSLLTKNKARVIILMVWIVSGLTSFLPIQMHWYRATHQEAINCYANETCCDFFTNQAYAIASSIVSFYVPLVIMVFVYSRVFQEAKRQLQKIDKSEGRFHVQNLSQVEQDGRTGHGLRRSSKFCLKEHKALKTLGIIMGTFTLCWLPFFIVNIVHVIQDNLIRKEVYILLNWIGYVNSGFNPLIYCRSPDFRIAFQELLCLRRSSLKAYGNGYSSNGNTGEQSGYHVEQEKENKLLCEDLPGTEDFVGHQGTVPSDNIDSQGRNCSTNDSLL

Compound | EC50 [1, 3] | EC50 [2, 4] | also measured
CC(C)(C)NC[C@H](O)c1cccc2[nH]nc(F)c12 [Compound 04-113] | < 10 nM | < 10 nM | 
COc1ccc(C[C@@H](C)NC[C@H](O)c2ccc3c(n2)NCCO3)cc1 [Compound 04-12] | 10 to 100 nM | 100 to 1000 nM | 
CC(C)(C)NC[C@H](O)c1cccc2c1OC(C)(C)C(=O)N2 [Compound 04-133] | < 10 nM | < 10 nM | 
CC(C)(C)NC[C@H](O)c1ccc(F)c2cccnc12 [Compound 04-80] | < 10 nM | < 10 nM | 
CC(C)(C)NC[C@H](O)c1ccnc2[nH]c(=O)ccc12 [Compound 04-13] | < 10 nM | 10 to 100 nM | 
CC(C)(C)NC[C@H](O)c1ccc(Cl)c2[nH]ncc12 [Compound 04-108] | < 10 nM | < 10 nM | 
CC(C)(C)NC[C@H](O)c1ccc2c(c1)C1(CC1)CN2 [Compound 04-123] | 100 to 1000 nM | > 1000 nM | 
CC(C)(C)NC[C@@H](O)c1cccc2ccc(C(F)(F)F)nc12 [Compound 04-86] | 100 to 1000 nM | 100 to 1000 nM | 
CC(C)(C)NC[C@H](O)c1cnc(N)c(C(F)(F)F)c1 [Compound 02-2] |  |  | Average pEC50 [Receptor subtype: B2-AR; Cell type: CHO-K1 (HitHunter)] ([1]; CHO-K1 (HitHunter) cells): D (D < 6); EC50 ([1]; Table 2, cAMP HTRF, read-out: β2 EC50): > 1000 nM; Average pEC50 [Receptor subtype: B1-AR; Cell type: CHO-K1 (HitHunter)] ([2]; CHO-K1 (HitHunter) cells): D (D < 6); EC50 ([2]; Table 2, cAMP HTRF, read-out: β1 EC50): > 1000 nM
COc1ccc([C@@H](O)CNC(C)(C)C)c2cn[nH]c12 [Compound 04-150] | < 10 nM | 10 to 100 nM | 
CC(C)(C)NC[C@H](O)c1cc(Cl)c2[nH]cnc2c1 [Compound 04-117] | < 10 nM | 100 to 1000 nM | 
CC(C)(CO)NC[C@H](O)c1cccc2[nH]c(=O)ccc12 [Compound 04-141] | < 10 nM | 10 to 100 nM | 
CC(C)(C)NC[C@@H](O)c1cccc(N)n1 [Compound 02-6] | 10 to 100 nM | 100 to 1000 nM | 
CC(C)(C)NC[C@H](O)c1ccc2c(c1)[nH]c1ncccc12 [Compound 04-128] | 100 to 1000 nM | > 1000 nM | 
Cc1c[nH]c2cccc([C@@H](O)CNC(C)(C)C)c12 [Compound 04-111] | > 1000 nM | > 1000 nM | 
CC(C)(C)NC[C@H](O)c1cccc2c1C(C)(C)C(=O)N2 [Compound 04-102] | 100 to 1000 nM | 100 to 1000 nM | 
Cc1noc2cccc([C@@H](O)CNC(C)(C)C)c12 [Compound 04-29] | > 1000 nM | 100 to 1000 nM | 
COc1ccc(CC(C)(C)NC[C@H](O)c2cccc3[nH]c4ccccc4c23)cc1 [Compound 04-55] | < 10 nM | 10 to 100 nM | 
CC(C)(C)NC[C@H](O)c1ccc2cccc(C#N)c2n1 [Compound 04-135] | < 10 nM | < 10 nM | 
CC(C)NC[C@H](O)c1cccc2[nH]c(=O)ccc12 [Compound 04-152] | < 10 nM | < 10 nM | 
CC(C)(C)NC[C@@H](O)c1ccc(C(F)(F)F)c2cccnc12 [Compound 04-81] | 100 to 1000 nM | 100 to 1000 nM | 
Cc1ccnc2c([C@H](O)CNC(C)(C)C)cccc12 [Compound 04-83] | 100 to 1000 nM | 100 to 1000 nM | 
CC(C)(C)NC[C@H](O)c1ncc(O)c2ccccc12 [Compound 04-97] | > 1000 nM | > 1000 nM | 
CC(C)(C)NC[C@H](O)c1cccc2c1OCC(=O)N2 [Compound 04-19] | < 10 nM | < 10 nM | 
CC(C)(C)NC[C@H](O)c1cccc2c1C1(CC1)CN2 [Compound 04-120] | 100 to 1000 nM | > 1000 nM | 
CC(C)(C)NC[C@H](O)c1cc(C#N)cc2[nH]ncc12 [Compound 04-104] | < 10 nM | 100 to 1000 nM | 
Cn1ncc2c([C@H](O)CNC(C)(C)C)cccc21 [Compound 04-28] | > 1000 nM | 100 to 1000 nM | 
Cc1noc2ccc([C@@H](O)CNC(C)(C)C)cc12 [Compound 04-51] | > 1000 nM | > 1000 nM | 
Cc1cc(N)nc([C@@H](O)CNC(C)(C)C)c1 [Compound 02-13] | 10 to 100 nM | 10 to 100 nM | 
